From the NIST ThermoML archive (doi:10.1021/je501041r)
± gives the expanded uncertainty stated by the source.

Columns and labels:
[1] = xn = mol fraction of the nth substance listed; details: 101 kPa, Liquid; for viscosity: Capillary tube (Ostwald / Ubbelohde) method; for mass density: Vibrating tube method
[2] = 101 kPa, Liquid; for viscosity: Capillary tube (Ostwald / Ubbelohde) method; for mass density: Vibrating tube method

CC(C)CC(C)(C)C [2,2,4-trimethylpentane] + CCCCCCO
[1], x1 = 1
Details | mass density [kg/m3] | viscosity [mPa·s]
298.15 K | 687.82 ± 2 | 0.478 ± 0.006
303.15 K | 683.68 ± 2 | 0.453 ± 0.005
308.15 K | 679.52 ± 2 | 0.429 ± 0.005
313.15 K | 675.32 ± 2 | 0.408 ± 0.005
318.15 K | 671.1 ± 2 | 0.388 ± 0.005
323.15 K | 666.85 ± 2 | 0.369 ± 0.005

CCCO [propan-1-ol] + CC(C)CC(C)(C)C
[1], x2 = 0
Details | mass density [kg/m3] | viscosity [mPa·s]
298.15 K | 800.03 ± 2 | 1.955 ± 0.023
303.15 K | 796.01 ± 2 | 1.737 ± 0.02
308.15 K | 791.92 ± 2 | 1.548 ± 0.018
313.15 K | 787.79 ± 2 | 1.384 ± 0.016
318.15 K | 783.65 ± 2 | 1.241 ± 0.015
323.15 K | 779.43 ± 2 | 1.117 ± 0.013

CC(C)CC(C)(C)C [2,2,4-trimethylpentane] + CCCCCO
[1], x1 = 1
Details | mass density [kg/m3] | viscosity [mPa·s]
298.15 K | 687.82 ± 2 | 0.478 ± 0.006
303.15 K | 683.68 ± 2 | 0.453 ± 0.005
308.15 K | 679.52 ± 2 | 0.429 ± 0.005
313.15 K | 675.32 ± 2 | 0.408 ± 0.005
318.15 K | 671.1 ± 2 | 0.388 ± 0.005
323.15 K | 666.85 ± 2 | 0.369 ± 0.005

CCCO [propan-1-ol]
[2]
Details | mass density [kg/m3] | viscosity [mPa·s]
298.15 K | 800.03 ± 2 | 1.955 ± 0.023
303.15 K | 796.01 ± 2 | 1.737 ± 0.02
308.15 K | 791.92 ± 2 | 1.548 ± 0.018
313.15 K | 787.79 ± 2 | 1.384 ± 0.016
318.15 K | 783.65 ± 2 | 1.241 ± 0.015
323.15 K | 779.43 ± 2 | 1.117 ± 0.013

CC(C)CC(C)(C)C [2,2,4-trimethylpentane]
[2]
Details | mass density [kg/m3] | viscosity [mPa·s]
298.15 K | 687.82 ± 2 | 0.478 ± 0.006
303.15 K | 683.68 ± 2 | 0.453 ± 0.005
308.15 K | 679.52 ± 2 | 0.429 ± 0.005
313.15 K | 675.32 ± 2 | 0.408 ± 0.005
318.15 K | 671.1 ± 2 | 0.388 ± 0.005
323.15 K | 666.85 ± 2 | 0.369 ± 0.005

CCCCCCO [hexan-1-ol]
[2]
Details | mass density [kg/m3] | viscosity [mPa·s]
298.15 K | 815.3 ± 2 | 4.605 ± 0.056
303.15 K | 811.71 ± 2 | 3.944 ± 0.048
308.15 K | 808.09 ± 2 | 3.414 ± 0.042
313.15 K | 804.43 ± 2 | 2.96 ± 0.036
318.15 K | 800.75 ± 2 | 2.581 ± 0.032
323.15 K | 797.02 ± 2 | 2.251 ± 0.028

CC(C)CC(C)(C)C [2,2,4-trimethylpentane] + CCCCCCCO
[1], x1 = 1
Details | mass density [kg/m3] | viscosity [mPa·s]
298.15 K | 687.82 ± 2 | 0.478 ± 0.006
303.15 K | 683.68 ± 2 | 0.453 ± 0.005
308.15 K | 679.52 ± 2 | 0.429 ± 0.005
313.15 K | 675.32 ± 2 | 0.408 ± 0.005
318.15 K | 671.1 ± 2 | 0.388 ± 0.005
323.15 K | 666.85 ± 2 | 0.369 ± 0.005

CCCCCCCO [heptan-1-ol]
[2]
Details | mass density [kg/m3] | viscosity [mPa·s]
298.15 K | 818.82 ± 2 | 6.004 ± 0.073
303.15 K | 815.3 ± 2 | 5.079 ± 0.062
308.15 K | 811.75 ± 2 | 4.374 ± 0.054
313.15 K | 808.17 ± 2 | 3.8 ± 0.047
318.15 K | 804.57 ± 2 | 3.224 ± 0.04
323.15 K | 800.93 ± 2 | 2.851 ± 0.035

CCCCCO [pentan-1-ol]
[2]
Details | mass density [kg/m3] | viscosity [mPa·s]
298.15 K | 810.59 ± 2 | 3.458 ± 0.042
303.15 K | 807.89 ± 2 | 3.007 ± 0.037
308.15 K | 804.16 ± 2 | 2.625 ± 0.032
313.15 K | 800.4 ± 2 | 2.317 ± 0.029
318.15 K | 796.59 ± 2 | 2.029 ± 0.025
323.15 K | 792.75 ± 2 | 1.795 ± 0.022
